In ChEMBL document CHEMBL1201862, “PubChem BioAssay data set” (2004):
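Where inhibition never reached the appropriate level, the endpoint shown equals the highest concentration tested. Otherwise, values were interpolated linearly from a five-concentration, 48-hour dose response in 96-well plates. Abbreviation: GI50, concentration required for 50% inhibition of growth.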 The source made the active and inactive calls. No stated cut-off is given here; in the data, active = GI50 up to about 1.1 µM and inactive = higher.

Tests used:
Test in all cases: NCI anticancer screen, dose series, 48 h
[1] = tested on: NCI-H23
[2] = tested on: NCI-H522
[3] = tested on: SW-620
[4] = tested on: HCT-15
[5] = tested on: HOP-62
[6] = tested on: DU-145
[7] = tested on: UACC-62
[8] = tested on: OVCAR-8
[9] = tested on: PC-3
[10] = tested on: RPMI-8226
[11] = tested on: NCI-H226
[12] = tested on: HOP-92
[13] = tested on: SK-MEL-28
[14] = tested on: UACC-257
[15] = tested on: KM12
[16] = tested on: BT-549
[17] = tested on: Malme-3M
[18] = tested on: CCRF-CEM
[19] = tested on: Hs-578T

Q: With `OC1COC(OCc2ccccc2)C(O)C1O` (stereo not given) as the compound, how does the GI50 [1] read?
A: > 100 µM (inactive)

Q: What about the GI50 [2] of the same compound?
A: > 100 µM (inactive)

Q: What about the GI50 [3] of the same compound?
A: > 100 µM (inactive)

Q: What about the GI50 [4] of the same compound?
A: > 100 µM

Q: What about the GI50 [5] of the same compound?
A: > 100 µM (inactive)

Q: What about the GI50 [6] of the same compound?
A: > 100 µM (inactive)

Q: What about the GI50 [7] of the same compound?
A: > 100 µM (inactive)

Q: What about the GI50 [8] of the same compound?
A: > 100 µM (inactive)

Q: What about the GI50 [9] of the same compound?
A: > 100 µM (inactive)

Q: What about the GI50 [10] of the same compound?
A: > 100 µM (inactive)

Q: And the GI50 [11]?
A: > 100 µM (inactive)

Q: What about the GI50 [12] of the same compound?
A: > 100 µM (inactive)

Q: What about the GI50 [13] of the same compound?
A: > 100 µM (inactive)

Q: What about the GI50 [14] of the same compound?
A: > 100 µM (inactive)

Q: What about the GI50 [15] of the same compound?
A: > 100 µM (inactive)

Q: And the GI50 [16]?
A: > 100 µM (inactive)

Q: And the GI50 [17]?
A: > 100 µM (inactive)

Q: And the GI50 [18]?
A: > 100 µM (inactive)

Q: What about the GI50 [19] of the same compound?
A: > 100 µM (inactive)

Q: Which results are given for `COc1ccccc1C1C2=C(COC2=O)Oc2cc3c(cc21)OCO3` (stereo not given)?
A: GI50 [1]: 3.22 µM (inactive); GI50 [2]: 0.619 µM (active); GI50 [3]: 1.38 µM (inactive); GI50 [4]: 1.16 µM; GI50 [5]: 3.93 µM (inactive); GI50 [6]: 3.39 µM (inactive); GI50 [7]: 1.06 µM (active); GI50 [8]: 3.39 µM (inactive); GI50 [9]: 2.12 µM (inactive); GI50 [10]: 3.27 µM (inactive); GI50 [11]: 5.31 µM (inactive); GI50 [12]: 8.3 µM (inactive); GI50 [13]: 4.73 µM (inactive); GI50 [14]: 21.1 µM (inactive); GI50 [15]: 1.33 µM (inactive); GI50 [16]: 66.2 µM (inactive); GI50 [17]: 14.1 µM (inactive); GI50 [18]: 2.13 µM (inactive); GI50 [19]: 2.22 µM (inactive)

Q: How did the GI50 [1] turn out when `Cc1cc(S(=O)(=O)N/C(=C(\C#N)C(=O)c2ccccc2)[n+]2ccc(N(C)C)cc2)c([S-])cc1Cl` was run?
A: > 100 µM (inactive)

Q: What about the GI50 [2] of the same compound?
A: 35.6 µM (inactive)

Q: What about the GI50 [4] of the same compound?
A: > 100 µM

Q: What about the GI50 [5] of the same compound?
A: > 100 µM (inactive)

Q: And the GI50 [6]?
A: > 10 µM (inactive)

Q: What about the GI50 [7] of the same compound?
A: > 100 µM (inactive)

Q: And the GI50 [8]?
A: > 100 µM (inactive)

Q: What about the GI50 [9] of the same compound?
A: > 100 µM (inactive)

Q: What about the GI50 [10] of the same compound?
A: > 100 µM (inactive)

Q: And the GI50 [11]?
A: > 100 µM (inactive)

Q: And the GI50 [12]?
A: 0.33 µM (active)

Q: And the GI50 [13]?
A: > 100 µM (inactive)

Q: And the GI50 [14]?
A: > 100 µM (inactive)

Q: What about the GI50 [15] of the same compound?
A: > 100 µM (inactive)

Q: What about the GI50 [16] of the same compound?
A: > 100 µM (inactive)

Q: What about the GI50 [17] of the same compound?
A: 20.9 µM (inactive)

Q: What about the GI50 [18] of the same compound?
A: > 100 µM (inactive)

Q: What about the GI50 [19] of the same compound?
A: > 100 µM (inactive)

Q: Which results are given for `CN(C)NC(=S)Nc1ccccc1Br`?
A: GI50 [1]: > 100 µM (inactive); GI50 [2]: > 100 µM (inactive); GI50 [3]: > 100 µM (inactive); GI50 [4]: > 100 µM; GI50 [6]: > 100 µM (inactive); GI50 [7]: > 100 µM (inactive); GI50 [8]: > 100 µM (inactive); GI50 [9]: > 100 µM (inactive); GI50 [10]: > 100 µM (inactive); GI50 [11]: > 100 µM (inactive); GI50 [12]: > 100 µM (inactive); GI50 [13]: > 100 µM (inactive); GI50 [14]: > 100 µM (inactive); GI50 [15]: > 100 µM (inactive); GI50 [16]: > 100 µM (inactive); GI50 [17]: > 100 µM (inactive); GI50 [18]: > 100 µM (inactive); GI50 [19]: > 100 µM (inactive)

Q: Which results are given for `COC(=O)C1(C)CC2C(C)(CCC3(C)C4=CC=C5C(=CC(=O)C(O)=C5C)C4(C)CCC23C)CC1O` (stereo not given)?
A: GI50 [1]: 2.05 µM (inactive); GI50 [2]: 0.2 µM (active); GI50 [3]: 0.405 µM (active); GI50 [4]: 0.334 µM; GI50 [5]: 1.86 µM (inactive); GI50 [6]: 1.36 µM (inactive); GI50 [7]: 0.962 µM (active); GI50 [8]: 0.822 µM (active); GI50 [9]: 1.13 µM (inactive); GI50 [10]: 0.283 µM (active); GI50 [11]: 2.12 µM (inactive); GI50 [12]: 0.635 µM (active); GI50 [13]: 0.521 µM (active); GI50 [14]: 1.72 µM (inactive); GI50 [15]: 1.57 µM (inactive); GI50 [16]: 0.851 µM (active); GI50 [17]: 0.762 µM (active); GI50 [18]: 0.157 µM (active); GI50 [19]: 1.07 µM (active)

Q: `O=C(Oc1c(Br)cc(Br)cc1C(=O)Oc1ccccc1)C(=O)Oc1c(Br)cc(Br)cc1C(=O)Oc1ccccc1` was tested. Which GI50 [1] did it give?
A: 0.621 µM (active)

Q: What about the GI50 [2] of the same compound?
A: 14.4 µM (inactive)

Q: And the GI50 [3]?
A: 19.8 µM (inactive)

Q: What about the GI50 [4] of the same compound?
A: 20.7 µM

Q: And the GI50 [5]?
A: 16.2 µM (inactive)

Q: What about the GI50 [6] of the same compound?
A: 37.5 µM (inactive)

Q: And the GI50 [7]?
A: 24.8 µM (inactive)

Q: What about the GI50 [8] of the same compound?
A: 30.8 µM (inactive)

Q: What about the GI50 [9] of the same compound?
A: 20.2 µM (inactive)

Q: And the GI50 [10]?
A: 15.5 µM (inactive)

Q: And the GI50 [11]?
A: 16 µM (inactive)

Q: What about the GI50 [12] of the same compound?
A: 12 µM (inactive)

Q: What about the GI50 [13] of the same compound?
A: 28.7 µM (inactive)

Q: What about the GI50 [14] of the same compound?
A: 39 µM (inactive)

Q: What about the GI50 [15] of the same compound?
A: 24 µM (inactive)

Q: And the GI50 [16]?
A: 18.5 µM (inactive)

Q: And the GI50 [17]?
A: 20.9 µM (inactive)

Q: And the GI50 [19]?
A: 34.8 µM (inactive)

Q: `Cc1cc(S(=O)(=O)N=C2N(Cc3ccccc3)CCN2Cc2ccccc2)c(S)cc1Cl` was tested. Which GI50 [1] did it give?
A: > 100 µM (inactive)

Q: And the GI50 [2]?
A: 40.6 µM (inactive)

Q: What about the GI50 [3] of the same compound?
A: > 100 µM (inactive)

Q: And the GI50 [4]?
A: > 100 µM

Q: And the GI50 [5]?
A: > 100 µM (inactive)

Q: What about the GI50 [6] of the same compound?
A: > 100 µM (inactive)

Q: And the GI50 [7]?
A: > 100 µM (inactive)

Q: What about the GI50 [8] of the same compound?
A: > 100 µM (inactive)

Q: And the GI50 [9]?
A: 27.7 µM (inactive)

Q: What about the GI50 [10] of the same compound?
A: > 100 µM (inactive)

Q: What about the GI50 [11] of the same compound?
A: 85.5 µM (inactive)

Q: And the GI50 [12]?
A: > 100 µM (inactive)

Q: What about the GI50 [13] of the same compound?
A: > 100 µM (inactive)

Q: What about the GI50 [14] of the same compound?
A: > 100 µM (inactive)

Q: And the GI50 [15]?
A: > 100 µM (inactive)

Q: And the GI50 [16]?
A: > 100 µM (inactive)

Q: And the GI50 [17]?
A: > 100 µM (inactive)

Q: And the GI50 [18]?
A: > 100 µM (inactive)

Q: And the GI50 [19]?
A: > 100 µM (inactive)
